Assay results as given in ChEMBL document CHEMBL4270481, “ALK5 kinase inhibitory activity and synthesis of 2,3,4-substituted 5,5-dimethyl-5,6-dihydro-4H-pyrrolo[1,2-b]pyrazoles” (Eur J Med Chem, 2017).
The source made the active and inactive calls. The rule behind the calls is not given here.

Experiments:
[1] = target: Tyrosine-protein kinase ABL1 (Mus musculus, UniProt P00520); experiment: biochemical; type: cell-based, Sf9
[2] = target: T1, TGF-beta receptor type-1 (Homo sapiens, UniProt P36897); experiment: Inhibition of human ALK5 expressed in Sf9 insect cells using casein as substrate in presence of [gamma-33P]ATP; type: cell-based
T1 sequence (P36897 whole entry): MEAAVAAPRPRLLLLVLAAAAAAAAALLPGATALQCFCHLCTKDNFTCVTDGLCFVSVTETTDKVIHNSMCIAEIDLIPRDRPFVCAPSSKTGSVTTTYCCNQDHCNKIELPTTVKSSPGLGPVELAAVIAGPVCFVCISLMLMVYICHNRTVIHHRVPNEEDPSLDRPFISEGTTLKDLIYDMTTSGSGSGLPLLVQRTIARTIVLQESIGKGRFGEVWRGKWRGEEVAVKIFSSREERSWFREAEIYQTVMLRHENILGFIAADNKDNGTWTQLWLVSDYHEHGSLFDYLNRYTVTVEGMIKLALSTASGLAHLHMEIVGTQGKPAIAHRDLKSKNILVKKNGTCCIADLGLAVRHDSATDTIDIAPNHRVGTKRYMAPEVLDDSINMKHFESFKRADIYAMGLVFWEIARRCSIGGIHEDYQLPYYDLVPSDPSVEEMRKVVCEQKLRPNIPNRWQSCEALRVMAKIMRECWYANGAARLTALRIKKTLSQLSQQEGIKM

[3] = target: Cyclin-dependent kinase 2/cyclin E1 (Homo sapiens, UniProt P24941); experiment: Inhibition of human CDK2/cyclin E expressed in Sf9 insect cells using histone H1 as substrate in presence of [gamma-33P]ATP; type: cell-based
[4] = tested on: K562; experiment: Cytotoxicity against human K562 cells assessed as decrease in cell proliferation after 72 hrs by calcein AM staining-based assay; type: functional; details: K562, 72 h
[5] = tested on: MCF7; experiment: Cytotoxicity against human MCF7 cells assessed as decrease in cell proliferation after 72 hrs by calcein AM staining-based assay; type: functional; details: MCF7, 72 h
[6] = target: T2, TGF-beta receptor type-1 (Homo sapiens) (UniProt P36897); details: HeLa, at 1 µM
T2 sequence (whole entry): T1 sequence (P36897 whole entry)
Description: Inhibition of ALK5 in serum starved human HeLa cells assessed as reduction in TGF-beta-induced SMAD2/3 nuclear transaction at 1 uM pre-incubated for 30 mins before TGF-beta stimulation for 30 mins by immunofluorescence analysis

Chain of Tyrosine-protein kinase ABL1 (P00520 whole entry): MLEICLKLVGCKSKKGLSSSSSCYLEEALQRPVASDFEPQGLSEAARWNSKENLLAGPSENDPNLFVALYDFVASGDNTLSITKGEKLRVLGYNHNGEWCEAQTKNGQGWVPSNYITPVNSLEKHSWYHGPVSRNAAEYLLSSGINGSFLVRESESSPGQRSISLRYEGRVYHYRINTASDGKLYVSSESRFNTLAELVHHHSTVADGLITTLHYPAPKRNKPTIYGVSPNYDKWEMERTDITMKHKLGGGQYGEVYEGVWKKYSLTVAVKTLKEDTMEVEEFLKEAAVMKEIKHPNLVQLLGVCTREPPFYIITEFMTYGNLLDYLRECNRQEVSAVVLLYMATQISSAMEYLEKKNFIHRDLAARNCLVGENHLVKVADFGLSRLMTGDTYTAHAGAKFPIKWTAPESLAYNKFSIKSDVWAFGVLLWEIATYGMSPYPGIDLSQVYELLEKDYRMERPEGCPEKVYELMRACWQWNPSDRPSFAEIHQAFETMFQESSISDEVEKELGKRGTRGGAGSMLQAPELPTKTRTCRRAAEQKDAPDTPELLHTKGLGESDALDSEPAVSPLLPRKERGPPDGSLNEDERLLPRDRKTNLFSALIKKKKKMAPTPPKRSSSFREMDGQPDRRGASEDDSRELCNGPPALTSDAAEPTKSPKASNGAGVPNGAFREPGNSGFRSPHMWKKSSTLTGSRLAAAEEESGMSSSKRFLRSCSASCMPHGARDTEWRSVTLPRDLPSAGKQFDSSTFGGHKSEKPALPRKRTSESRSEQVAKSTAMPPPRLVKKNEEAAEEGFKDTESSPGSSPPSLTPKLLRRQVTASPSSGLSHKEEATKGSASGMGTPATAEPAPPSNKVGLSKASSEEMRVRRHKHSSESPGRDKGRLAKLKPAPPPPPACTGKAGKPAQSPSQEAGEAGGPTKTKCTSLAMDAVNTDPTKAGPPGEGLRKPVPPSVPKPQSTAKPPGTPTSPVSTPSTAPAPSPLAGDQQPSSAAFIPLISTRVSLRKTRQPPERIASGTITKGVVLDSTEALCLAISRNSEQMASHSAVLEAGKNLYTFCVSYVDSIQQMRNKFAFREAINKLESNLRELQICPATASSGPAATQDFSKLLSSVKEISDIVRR

Row | IC50 [1] [µM] | IC50 [2] [µM] | IC50 [3] [µM] | Structure (SMILES) | IC50 [4] [µM] | IC50 [5] [µM] | inhibition [6]
1 | 93 | 1.41 | > 100 | Cc1cccc(-c2nn3c(c2-c2ccncc2)C(CO)C(C)(C)C3)n1 (stereo not given) | > 100 | > 100 | 
2 | > 100 | 0.517 | > 100 | Cc1cccc(-c2nn3c(c2-c2ccnc(Cl)c2)C(C)C(C)(C)C3)n1 (stereo not given) | > 100 | > 100 | 
3 | > 100 | 2.01 | > 100 | CCOC(=O)c1ccc(-c2c(-c3cccc(C)n3)nn3c2C(C)C(C)(C)C3)cc1 (stereo not given) | 45 | 29 | 
4 | > 100 | 0.097 | > 100 | Cc1cccc(-c2nn3c(c2-c2ccc(O)cc2)[C@H](C)C(C)(C)C3)n1 | > 100 | > 100 | 
5 | 6.4 | 0.162 | > 100 | Cc1cccc(-c2nn3c(c2-c2ccncc2)C(C)C(C)(C)C3)c1C#N (stereo not given) | 92 | 97 | 
6 | 11 | 1.29 | > 100 | CC1c2c(-c3ccncc3)c(-c3ccccc3C#N)nn2CC1(C)C (stereo not given) | 77 | > 100 | 
7 | > 100 | 0.261 | 53 | CCc1cccc(-c2nn3c(c2-c2ccc(O)cc2)[C@@H](C)C(C)(C)C3)n1 | 77 | 58 | 
8 | 25 | 0.743 | > 100 | COCC1c2c(-c3ccncc3)c(-c3cccc(C)n3)nn2CC1(C)C (stereo not given) | > 100 | > 100 | 
9 | > 100 | 0.098 | > 100 | CCc1cccc(-c2nn3c(c2-c2ccc(O)cc2)C(C)C(C)(C)C3)n1 (stereo not given) | > 100 | 46 | 
10 | 26 | 0.406 | > 100 | Cc1cccc(-c2nn3c(c2-c2ccncc2)CC(C)(C)C3)n1 | > 100 | > 100 | 
11 | 43 | 0.183 | > 100 | CCc1cccc(-c2nn3c(c2-c2ccncc2)C(C)C(C)(C)C3)n1 (stereo not given) | > 100 | > 100 | 
12 | 21 | 0.181 | > 100 | Cc1cccc(-c2nn3c(c2-c2ccncc2)C(C)C(C)(C)C3)n1 (stereo not given) | > 100 | > 100 | 
13 | 25 | 0.548 | > 100 | Cc1cc(-c2c(-c3cccc(C)n3)nn3c2C(C)C(C)(C)C3)ccn1 (stereo not given) | > 100 | > 100 | 
14 | > 100 | 0.197 | > 25 | Cc1cccc(-c2nn3c(c2-c2ccc(O)cc2)[C@@H](C)C(C)(C)C3)n1 | > 50 | > 50 | 
15 | > 100 | 0.612 | > 100 | COc1ccc(-c2c(-c3cccc(C)n3)nn3c2C(C)C(C)(C)C3)cc1 (stereo not given) | 88 | 66 | 
16 | > 100 | 0.137 | > 100 | CCc1cccc(-c2nn3c(c2-c2ccc(O)cc2)[C@H](C)C(C)(C)C3)n1 | > 100 | > 100 | 

Further lines, the compound ahead of its results:

Row | Structure (SMILES) | IC50 [1] [µM] | IC50 [2] [µM] | IC50 [3] [µM] | IC50 [4] [µM] | IC50 [5] [µM] | inhibition [6]
17 | Cc1cccc(-c2nn3c(c2-c2ccnc(Nc4ccc(S(N)(=O)=O)cc4)c2)C(C)C(C)(C)C3)n1 (stereo not given) | 0.55 | 0.154 | 11 | 31 | 22 | 
18 | CC1(C)Cc2c(-c3ccncc3)c(-c3ccccn3)nn2C1 | > 50 | 1.94 | > 50 | > 100 | > 100 | 
19 | CCc1cccc(-c2nn3c(c2-c2ccnc(Nc4ccc(S(N)(=O)=O)cc4)c2)C(C)C(C)(C)C3)n1 (stereo not given) | 6.8 | 0.229 | 37 | 24 | 28 | 
20 | CC1(C)Cc2c(-c3ccc(O)cc3)c(-c3ccccn3)nn2C1 | > 100 | 1.99 | > 100 | 74 | > 100 | 
21 | CCc1cccc(-c2nn3c(c2-c2ccnc(Cl)c2)C(C)C(C)(C)C3)n1 (stereo not given) | > 100 | 2.74 | > 100 | 82 | > 100 | 
22 | Cc1cccc(-c2n[nH]cc2-c2ccc3ncccc3n2)n1 [GW786460X] | 21 |  | > 100 | > 100 | > 100 | Active
23 | Cc1cccc(-c2nn3c(c2-c2ccc(O)cc2)C(C)C(C)(C)C3)c1C#N (stereo not given) | > 12 | 0.341 | > 12 | > 12 | > 12 | 
24 | Cc1cccc(-c2nn3c(c2-c2ccnc(Cl)c2)CC(C)(C)C3)n1 | > 100 | 1.23 | > 100 | > 100 | > 100 | 
25 | Cc1cccc(-c2nn3c(c2-c2ccnc(Nc4ccc(S(N)(=O)=O)cc4)c2)CC(C)(C)C3)n1 | 2.5 | 0.147 | > 100 | 52 | 92 | 
26 | CC1(C)Cc2c(-c3ccncc3)c(-c3ccccc3C#N)nn2C1 | 20 | 2.52 | > 100 | > 100 | > 100 | 
27 | CCc1cccc(-c2nn3c(c2-c2ccc(OC)cc2)C(C)C(C)(C)C3)n1 (stereo not given) | > 100 | 0.805 | > 100 | 64 | 45 | 
28 | Cc1cccc(-c2nn3c(c2-c2ccc(O)cc2)CC(C)(C)C3)n1 | 20 | 0.229 | > 100 | > 25 | > 25 | 
29 | CC1c2c(-c3ccc(O)cc3)c(-c3ccccc3C#N)nn2CC1(C)C (stereo not given) | > 12 | 5.19 | > 12 | > 12 | > 12 | 
